Assay results taken from US20220016092A1, “METHODS FOR TREATING SYMPTOMS AND DISORDERS ASSOCIATED WITH LYSOSOMAL STORAGE DISEASES” (GENZYME CORPORATION, priority 2019, published 2022).

Assays:
[1] = system: adult patients with Gaucher disease Type 3; assay: Clinical study in GD-3 patients: horizontal and vertical saccadic eye movements; format: in vivo, human; conditions: 15 mg/day + imiglucerase
Protocol: (§1) During the study patients were evaluated for safety and tolerability, CSF and plasma biomarkers (glucosylceramide, GL-1; glucosylsphingosine, lyso-GL1), pharmacokinetics, markers for systemic disease (spleen and liver volume measured by magnetic resonance imaging (MRI), platelet count, hemoglobin levels), indicia of interstitial lung disease (high resolution pulmonary computed tomography (CT)), and horizontal saccadic eye movement.
Quantification of horizontal and vertical saccadic eye movements (HSEM and VSEM, respectively) was performed in all 5 patients. In the five patients, mean peak velocity (PV) of horizontal rightward 15° saccades was 50.8°/s (+/−8.1°/s) at baseline and […] (+/−12.6°/s) at Week 26; and the mean PV of horizontal leftward 15° saccades was 44.7° /s (+/−17.9°/s) at baseline and 32.3°/s (+/−15.9°/s) at Week 26. A slower velocity implies a more significant degree of neurological impairment. The mean PV of horizontal rightward 30° saccades was 77.7°/s (+/−16.4°/s) at baseline and […] (+/−24.7°/s) at Week 26; and the mean PV of horizontal leftward 30° saccades was 58.7°/s (+/−21.5°/s) at baseline and 49.9°/s (+/−8.5°/s) at Week 26. The normal range for […] horizontal saccades has previously been reported as >200°/s and >400°/s (Bremova-Ertl et al, 2018). […] As with HSEM, VSEM measurements were stable between baseline and week 26.
At 52 weeks, quantification of horizontal and vertical saccadic eye movements was performed in all six patients in a similar manner as described in section (A). However, it was determined that the methodology used to account for noise (e.g., caused by blinking or head movements) may have introduced bias into the results. The method of accounting for noise was therefore modified, and a set of control criteria were developed to assess validity of the datasets obtained by the eye movement reader.

[2] = system: adult patients with Gaucher disease Type 3; assay: Clinical study in GD-3 patients: safety and tolerability; format: in vivo, human; conditions: 15 mg/day + imiglucerase
Protocol: as §1

[3] = system: GL-3, lyso-GL-3, GL-1 and GM3; assay: Clinical study in Fabry disease patients: plasma and urine glycosphingolipids; format: in vivo, human; conditions: 15 mg/day oral
Protocol: A three-year open-label investigation of Compound 2 in young classic Fabry disease patients was conducted in order to evaluate the long-term safety, pharmacodynamics and exploratory efficacy of Compound 2 in adult male Fabry patients. Eleven subjects enrolled in the study, and seven subjects completed all aspects of the study. All subjects were males diagnosed with classic Fabry disease confirmed by genotype and residual alpha-galactosidase activity below detection levels (9 of the 11 had nonsense mutation in the GLA gene). All subjects had lyso-GL3 levels in plasma of at least 65 ng/mL and had no prior Fabry disease-specific treatment. The median age of subject was 24 years (range 19-37).
Each sample was scored independently by 3 pathologists for the presence of GL-3 inclusions on a four-point scale, and rated as 0 (no/trace), 1 (mild), 2 (moderate), or 3 (severe) according to Eng et al., N. Engl. J. Med. 345:9-16 (2001). A single score per patient per time point was derived by taking the score rated by the majority of the three pathologists. If a majority score could not be derived, then the median score was used (resulting in some fractional scores). […] Pain scores and abdominal symptoms were analyzed at baseline and weeks 12, 26, 52, 104 and 156 using the SF-36 scoring protocol. […]

[4] = system: GM3 expression in B16 mouse melanoma cells; assay: GM3 fluorescent-linked immunosorbent assay (FLISA), B16 cells; format: cell-based; conditions: 48 hours
Excerpt: Inhibition of glucosylceramide synthase activity can be measured with one or more assays. A first assay is a microsomal assay that directly measures the conversion of ceramide to glucosylceramide by HPLC. Microsomes are a source of glucosylceramide synthase activity in the microsomal assay. A second assay is a cell based, phenotypic assay that monitors cell surface expression of the downstream lipid GM3 by antibody mediated immunofluorescence. Specific protocols are provided below.
This is a phenotypic assay that measures GM3 expression in B16 mouse melanoma or C32 human melanoma cells following treatment with test compounds. Cell surface GM3 expression is determined by antibody mediated fluorescence.
Compounds are diluted in media and plated in 384 well plates in DMSO. B16 and C32 cells are assayed at densities of 20,000 cells/ml and 62,500 cells/ml, respectively, per well. Each titration curve contains 10 points that are assayed in duplicate on each test run. The plates are incubated for 48 hours at 37° C., 5% CO2, and are then washed once with TBS. Anti-GM3 antibody is added to each well and the plates are then incubated for an additional one hour at room temperature. Plates are subsequently washed twice and incubated for an additional hour with the labeled secondary antibody. Following the final incubation, the plates are washed twice and the fluorescence at λex=D640/20 nm and λem=657 nm is detected on a fluorescent reader.
The results of the microsomal assays are expressed as “GCS IC50”, which represents the concentration of the compound causing 50% inhibition of glucosylceramide synthase activity. The results of the cell-based assays are expressed as “GM3 B16 IC50” or “GM3 C32 IC50” for the B16 assay and the C32 assay, respectively. These values represent the concentration of the compound causing 50% inhibition of GM3 expression on the cell surface.

CC(C)(NC(=O)O[C@@H]1CN2CCC1CC2)c1csc(-c2ccc(F)cc2)n1 [Compound 2, (S)-quinuclidin-3-yl 2-(2-(4-fluorophenyl)thiazol-4-yl)propan-2-ylcarbamate]
Changes in HSEM ([1]; 26-week treatment period): no clinically meaningful changes in HSEM | Mean peak velocity of horizontal leftward 15° saccades ([1]; Week 26, five patients): 32.3 °/s | Mean peak velocity of horizontal leftward 30° saccades ([1]; Week 26, five patients): 49.9 °/s | VSEM measurements ([1]; between baseline and week 26): stable | Treatment-emergent adverse events ([2]; 26 weeks, all 5 patients): no serious or lasting treatment-emergent adverse events | Severity and relatedness of treatment-emergent adverse events ([2]; 52 weeks, six patients): mild or moderate in severity, and none of which were considered related to treatment with Compound 2 or imiglucerase | Total treatment-emergent adverse events reported ([2]; 52 weeks, six patients): 30 | Urine GL-3 (mg per mmol urine creatinine), change from baseline ([3]; 26 weeks (n = 8)): -0.25 mg/mmol | Plasma GL-1, change from baseline ([3]; 26 weeks (n = 9)): -3.26 µg/mL | Plasma GL-3, change from baseline ([3]; 26 weeks (n = 9)): -3.62 µg/mL | Plasma GM3, change from baseline ([3]; 26 weeks (n = 9)): -10.77 µg/mL | Plasma lyso-GL-3, change from baseline ([3]; 26 weeks (n = 9)): -30.99 ng/mL | Plasma GL-1, change from baseline ([3]; 52 weeks (n = 7)): -3.58 µg/mL | Plasma GL-3, change from baseline ([3]; 52 weeks (n = 7)): -5.06 µg/mL | Plasma GM3, change from baseline ([3]; 52 weeks (n = 7)): -8.84 µg/mL | Plasma lyso-GL-3, change from baseline ([3]; 52 weeks (n = 7)): -37.10 ng/mL | Urine GL-3 (mg per mmol urine creatinine), change from baseline ([3]; 52 weeks (n = 7)): -0.20 mg/mmol | Plasma GL-1, change from baseline ([3]; 104 weeks (n = 7)): -3.70 µg/mL | Plasma GL-3, change from baseline ([3]; 104 weeks (n = 7)): -6.32 µg/mL | Plasma GM3, change from baseline ([3]; 104 weeks (n = 7)): -9.92 µg/mL | Plasma lyso-GL-3, change from baseline ([3]; 104 weeks (n = 7)): -39.84 ng/mL | Urine GL-3 (mg per mmol urine creatinine), change from baseline ([3]; 104 weeks (n = 7)): -0.18 mg/mmol | Plasma GL-1, change from baseline ([3]; 156 weeks (n = 7)): -3.23 µg/mL | Plasma GL-3, change from baseline ([3]; 156 weeks (n = 7)): -6.97 µg/mL | Plasma GM3, change from baseline ([3]; 156 weeks (n = 7)): -8.12 µg/mL | Plasma lyso-GL-3, change from baseline ([3]; 156 weeks (n = 7)): -48.13 ng/mL | Urine GL-3 (mg per mmol urine creatinine), change from baseline ([3]; 156 weeks (n = 7)): -0.18 mg/mmol | Plasma GL-3 levels ([3]; after 156 weeks): 1.90 µg/mL | Plasma GL-3 reduction compared to agalsidase beta ([3]; at 104 weeks (p=0.0351) and 156 weeks (p=0.0081)): significantly greater | Drop in mean plasma GL-1 levels ([3]; over the 156-week study): 69% | Drop in mean plasma GL-3 levels ([3]; over the 156-week study): 77% | Drop in mean plasma GM3 levels ([3]; over the 156-week study): 60% | Drop in mean plasma lyso-GL3 levels ([3]; over the 156-week study): 52% | IC50 [4]: 107 nM
